Assay: pKa and pH dye properties of amino-phenolphthaleins bound to Sepharose 6B
Type: physicochemical
Details: dye bound to Sepharose 6B
Experimental: The amino-phenolphthaleins of Examples 2A-2E were reacted with a solid support by the following general procedure:
Place 0.5 g of Sepharose 6B (commercially available from Pharmacia Inc., Piscataway, N.J. as order number 17-0480-01) into deionized water for 30-45 min. to swell. Collect the white gel. In reaction beaker, place 0.3-0.5 g of an appropriate amino-phthalein into 3 ml dioxane and 20 ml of carbonate buffer (pH 10.5). Add the gel and let sit at 35° for 20 hrs. Collect the gel on a glass frit and wash with water, ethanol, acetone and high and low pH buffers. Dialyze the gel against deionized water for 2 days.
In the case of Nc1cccc2c1C(=O)OC2(c1ccc(O)c(Br)c1)c1ccc(O)c(Br)c1 [Example 2C], the “retention of dye properties after coupling” value is reported as “no longer retained their dye properties”. In the case of Nc1cccc2c1C(=O)OC2(c1ccc(O)c(Cl)c1)c1ccc(O)c(Cl)c1 [Example 2D], the “retention of dye properties after coupling” value is reported as “no longer retained their dye properties”. For Nc1cccc2c1C(=O)OC2(c1ccc(O)cc1)c1ccc(O)cc1 [Example 2A], the pKa was “approximately 10”. For Cc1cc(C2(c3cc(C)c(O)cc3C)OC(=O)c3c(N)cccc32)c(C)cc1O [Example 2B], the pKa was ~12.

Assay: pKa and color change with pH of carboxy-phenolphthaleins bound to Sepharose 4B
Type: physicochemical
Details: dye bound to Sepharose 4B
Experimental: Place 0.5 g of Sepharose 4B (commercially available from Pharmacia Inc., Piscataway, N.J. as order number 17-0470-01) in 0.5M NaCl for 1 hour and then collect and set aside. Place the appropriate carboxy-phenolphthalein (1.3 mmol) in about 1 ml dimethylformamide and cool to 0° C. in a ice-ethanol bath. […] Leave the reaction at this cold temperature for 15-20 minutes. Then add the Sepharose 4B gel to reaction along with a scoop of benzyltributyl ammonium bromide and 30 ml of borate buffer (pH 9). Place the reaction flask on a shaker overnight at room temperature. Collect the support on a frit and wash with volumes of water, ethanol, acetone and buffered water. Finally, dialyze the support against water for 1-2 days.
For O=C(O)c1ccc2c(c1)C(=O)OC2(c1ccc(O)c(O)c1)c1ccc(O)c(O)c1 [Example 4I], the pKa was ~ 7. With O=C(O)c1ccc2c(c1)C(=O)OC2(c1cc([N+](=O)[O-])c(O)cc1[N+](=O)[O-])c1cc([N+](=O)[O-])c(O)cc1[N+](=O)[O-] [Example 4G] the pKa was ~ 4. For O=C(O)c1ccc2c(c1)C(=O)OC2(c1cc(Cl)c(O)c([N+](=O)[O-])c1)c1cc(Cl)c(O)c([N+](=O)[O-])c1 [Example 4H], the pKa was ~ 5.5. Molecule O=C(O)c1ccc2c(c1)C(=O)OC2(c1ccc(O)cc1)c1ccc(O)cc1 [Example 4A] has a pKa of 10. For O=C(O)c1ccc2c(c1)C(=O)OC2(c1cc(O)c(O)cc1[N+](=O)[O-])c1cc(O)c(O)cc1[N+](=O)[O-] [Example 4J], the pKa was ~ 6. In the case of O=C(O)c1ccc2c(c1)C(=O)OC2(c1ccc(O)c2ccccc12)c1ccc(O)c2ccccc12 [Example 4E], the pKa is reported as > 10.

Assay: pKa of carboxy-sulfonephthaleins bound to aminoethyl cellulose
Type: physicochemical
Details: dye bound to aminoethyl cellulose
Experimental: The carboxy-sulfonephthaleins of Examples 8A-8C were reacted with a solid support by the following general procedure:
Place 0.5 g aminoethyl cellulose (commercially available from Serva Biochemicals, Westbury, N.Y. 11590 as order no. 45015) in 30 ml of deionized water and set aside. Place 0.2 g of an appropriate dye in 25 ml of pyridine-HCl buffer (pH 5.8). Add the filtered cellulose to this reaction along with 83 mg of N-ethyl-N'-(3-dimethylaminopropyl)carbodimidehydrochloride (EDC). Place the reaction on a shaker overnight at room temperature. Collect the support and wash with large volumes of water, ethanol, acetone, DMF and pH buffers over the course of 2 days. Collect a final colored support. Also, this same procedure was run using aminopropyl silica beads (Serva #43660) in place of cellulose.
The pKa 's of the carboxy-sulfonephenolphthaleins bound to the solid support (aminoethyl cellulose) was determined and are set forth in Table 4 below: […]
In the case of O=C(O)c1ccc2c(c1)S(=O)(=O)OC2(c1ccc(O)c(Cl)c1)c1ccc(O)c(Cl)c1 [Example 8B], the pKa is reported as 6.2. Molecule Cc1cc(O)c(C(C)C)cc1C1(c2cc(C(C)C)c(O)cc2C)OS(=O)(=O)c2cc(C(=O)O)ccc21 [Example 8C] has a pKa of 9.2. Molecule O=C(O)c1ccc2c(c1)S(=O)(=O)OC2(c1ccc(O)cc1)c1ccc(O)cc1 [Example 8A] has a pKa of 7.6.

— US5384411A, “Immobilization of PH-sensitive dyes to solid supports” (Hewlett-Packard Company, priority 1991, dated 1995)
